In patent publication US10996215B2, “Methods for determining drug efficacy for the treatment of diffuse large B-cell lymphoma, multiple myeloma, and myeloid cancers” (CELGENE CORPORATION, priority 2013, dated 2021):

What was measured:
Aiolos, Ikaros, ZFP91 [1] = assay: Western blot in myeloma, lymphoma and primary B cells; type: cell-based; details: U266, DF15, RPMI8226, OCI-LY10, WSU-DLCL2, WSU-DLCL2 Compound A resistant, primary B cells; 8 hours
Protocol: Multiple myeloma cells (U266, DF15, RPMI8226), diffuse large B cell lymphoma cells (OCI-LY10, WSU-DLCL2, WSU-DLCL2 Compound A resistant), and primary B cells were treated with DMSO, […] or […] for 8 hours. Cells were harvested and were treated in cell lysis buffer to generate cell lysates. Proteins from cell lysate were separated by gel electrophoresis (10% SDS-PAGE) and transferred to nitrocellulose membranes. Immunoblots were then probed with antibodies recognizing Aiolos, CRBN, Ikaros, ZFP91 (LSBio), IRF4, IRF7, Myc, and β-actin (Li-Cor).

IRF7, IFN response = assay: IFN response, Western blot of IRF7 in U2932 (ABC) cells; type: cell-based
Protocol: U2932 (ABC) cells were cultured and cell-passaged long-term in Compound A as described in Section 6.10. Levels of Aiolos, IRF7, and β-actin (control) were assessed using Western blotting, essentially as described above in Section 6.8.

CSNK1A1 (CK1α), Ikaros = assay: MG-132, MLN-4924 or Compound A pre-treatment, Western analysis in HNT-34 cells; type: cell-based; details: 10 μM Compound A 1.5 h, 0.3 μM or less lenalidomide, 3 h or 6 h
[2] = tested on: Aiolos, Ikaros, IRF4, Cereblon; assay: Western blot of Aiolos, Ikaros, IRF4, Cereblon in DLBCL cell lines; type: cell-based, human
Protocol: Immunoblots were probed with antibodies recognizing: Aiolos, Ikaros, Cereblon, IRF4, c-myc, CD44, EZH2, EBF 1, PU. 1, and β-actin. Signals were detected with a LI-COR imager
The following steps can be performed to harvest cells in preparation for Western Blot analysis. The steps are performed on ice and any centrifugation is performed in a 4° C. refrigerated centrifuge. RIPA lysis buffer (Pierce, cat #89900) is first prepared by adding […] proteinase inhibitors (Pierce, cat #78443) to 1 mL of RIPA buffer. Subsequently, cells are washed once in ice-cold phosphate buffered saline (PBS). The cells are then lysed with 0.25 mL RIPA lysis buffer. The PBMCs are placed on ice for 30 minutes and vortexed every 10 minutes. Lysates are frozen and stored at −80° C. prior to further processing.
Lysates are placed in a QIAshredder® tube (QIAGEN, cat #79656) and spun down 30 sec, top speed (13200 rpm) in an Eppendorf benchtop centrifuge (Model 5415 R). The lysate is then transferred to a 1.5 mL clear Eppendorf tube and spun down 10 min at top speed. The supernatent is collected without disturbing the cell debris pellet. The supernatent is dry ice frozen and stored at −80° C. prior to analysis.
The protein concentration in supernatent is measured using BCA assay and the expected protein yield is about 0.5-5 μg/μL, or 125-1250 μg total. Approximately ≥10 μg protein per lane is loaded for western blotting (IRF4, IKZF3, etc.) using antibodies against the human proteins.
Membranes are immunblotted with anti-Aiolos (Santa Cruz Biotechnology, Dallas, Tex.), anti-Ikaros (Millipore, Billerica, Mass.) and anti-Actin (Sigma, St. Louis, Mo.; or LI-COR Biosciences, Lincoln, Nebr.) and secondary antibodies (LI-COR Biosciences, Lincoln, Nebr.). The blots are analyzed on Odyssey imager (LI-COR Biosciences, Lincoln, Nebr.).

[3] = tested on: DLBCL cell lines (GCB and ABC); assay: tritiated thymidine incorporation proliferation assay; type: cell-based
Protocol: Cells were then cultured for 3 days at 37° C. Tritiated thymidine was applied to the cell culture for the final 6 hours and cells were then harvested onto filter plates. After the plates have dried, scintillation fluid was added to the plates and read on a Top-count reader.
The cells were then analyzed for proliferation using a ^3H-thymidine incorporation assay.
Proliferation was assessed through tritiated thymidine incorporation.

Aiolos = assay: Western blot of Aiolos in GCB and ABC cell lines, 24 or 72 hours; type: cell-based; details: ABC and GCB DLBCL cell lines
Protocol: Aiolos or β-actin (control) protein levels were analyzed by Western blotting, essentially as described in Section 6.8.

Aiolos, Ikaros, ZFP91 [4] = assay: CRBN dependence of ZFP91 reduction in U266 cells, Western blot; type: cell-based; details: 6 hour
Protocol: U266 cells were transduced with inducible shRNA constructs targeting CRBN or targeting luciferase as control. Cells were grown in the presence or in the absence of 10 ng/ml Doxycycline, and in the presence or in the absence of 1 μM pomalidomide. Cells were harvested and were treated in cell lysis buffer to generate cell lysates. Proteins from cell lysate were separated by gel electrophoresis and transferred to nitrocellulose membranes. Immunoblots were then probed with antibodies recognizing Aiolos, CRBN, Ikaros, ZFP91, IRF4, IFIT1, IFIT3, P-STAT1, and β-actin (Li-Cor).
Cells were harvested, and lysates were run on 10% SDS-PAGE and immunoblotted with the appropriate antibodies.
MG132 activates c-Jun N-terminal kinase (JNK1), which initiates apoptosis. […] MLN4924 is a NAE1 inhibitor that blocks the activity of Cullin Ring Ligases (CRLs), such as CRL4^CRBN. […] Cells were harvested and lysates were run on 10% SDS-PAGE, transferred to nitrocellulose and immunoblotted with the corresponding antibodies.

IFN pathway = assay: effect on IFN pathway (FIG. 13); type: cell-based
[5] = 3 days, tritiated thymidine incorporation

SMILES: Cc1nc2cccc(N)c2c(=O)n1C1CCC(=O)NC1=O (stereo not shown) [Compound A, 3-(5-amino-2-methyl-4-oxo-4H-quinazolin-3-yl)-piperidine-2,6-dione]
- levels of Aiolos, Ikaros, and ZFP91 (Aiolos, Ikaros, ZFP91 [1]): reduced
- IFN response gene expression (IRF7, IFN response; FIG. 10A): up-regulates
- IRF7 protein expression (IRF7, IFN response; U2932 (ABC), Western blot): upregulates
- lenalidomide induced CSNK1A1 degradation after Compound A pre-treatment (CSNK1A1 (CK1α), Ikaros): blocks
- IRF4 levels ([2]; DLBCL cell lines, 1 μM or 10 μM, within 72 hours): reduce
- Aiolos levels ([2]; Karpas 422 (GCB) and TMD8 (ABC), 10 μM, 1, 6 or 12 hours, vs DMSO): decrease
- Aiolos and Ikaros levels ([2]; WSU-DLCL2 (GCB) and OCI-LY10 (ABC), 10 μM, 1, 6 or 12 hours, vs DMSO): decreasing
- CRBN levels ([2]; nine GCB and ABC DLBCL cell lines, 1 μM or 10 μM, 72 hours): remained constant
- Aiolos and Ikaros levels ([2]; nine GCB and ABC DLBCL cell lines, 1 μM or 10 μM, 72 hours, vs DMSO): decreasing
- sensitivity of ABC DLBCL cell lines [3]: sensitive
- activity in some GCB DLBCL compared to lenalidomide (proliferation) [3, 5]: Differential activity
- potency in ABC DLBCL (proliferation) [3, 5]: more potent than lenalidomide
- Aiolos protein levels (Aiolos): decrease in a dose-dependent manner
- destruction of Aiolos, Ikaros, and ZFP91 (CRBN dependent pathway) (Aiolos, Ikaros, ZFP91 [4]): induced
- IFIT1, IFIT3, DDX58, XAF1, IFIH1, and OAS3 protein expression (IFN pathway; FIG. 13A): upregulates
- DDX58, IFI27, IFIT1, IFIT3, DDX58, and XAF1 gene expression (IFN pathway; FIG. 13B): upregulates
- ISG15 and OAS3 gene expression (IFN pathway; FIG. 13C): upregulates
- IRF changes (IFN pathway; FIG. 13E): induces
- IFIT1 and IFIT3 protein expression (IFN pathway; FIG. 13F): upregulates
- IKKE protein level (IFN pathway; FIG. 13F): reduces
- TBK1 phosphorylation (TBK1-PO4) (IFN pathway; FIG. 13F): upregulates
- levels of STAT or phosphorylated STAT (IFN pathway; FIG. 13G): induces changes
